Assay [1] is described as follows: Antihypertensive evaluation (AHP3). Type of assay: in vivo. Conditions: AHP3 antihypertensive assay; Table 2; read-out: ED40 (Dose causing a 40 nm drop in blood pressure). From the text: *Dose causing a […] drop in blood pressure, mg/kg.
The next assay addresses T1, A1 adenosine receptor (Rattus norvegicus, UniProt P25099).
T1 construct: from tissue
T1 sequence (P25099 1-326): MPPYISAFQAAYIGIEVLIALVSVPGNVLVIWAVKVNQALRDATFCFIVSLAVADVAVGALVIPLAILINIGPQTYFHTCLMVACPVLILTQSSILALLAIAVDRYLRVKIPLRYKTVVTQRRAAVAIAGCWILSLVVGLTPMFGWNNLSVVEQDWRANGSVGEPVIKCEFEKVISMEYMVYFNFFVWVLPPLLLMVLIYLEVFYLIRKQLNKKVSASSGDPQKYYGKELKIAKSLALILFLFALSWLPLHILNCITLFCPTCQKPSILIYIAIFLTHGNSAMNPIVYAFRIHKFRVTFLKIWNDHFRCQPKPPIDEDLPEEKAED
Nature of the assay: adenosine A1 receptor binding affinity. As to conditions: Table 1, n = 2 (mixture, VII'), n = 1 (VII"), read-out: A1 IC50 ± SE.

`OC[C@H]1O[C@@H](n2cnc3c(N[C@H]4C[C@H]5CC[C@@H]4C5)ncnc32)[C@H](O)[C@@H]1O` [Example 1 (VII'), (1R-endo)-N-Bicyclo[2.2.1]hept-2-yl adenosine]: the ED (40 mm drop in blood pressure) in assay [1] was 0.16 mg/kg.
For `OC[C@H]1O[C@@H](n2cnc3c(N[C@@H]4C[C@@H]5CC[C@H]4C5)ncnc32)[C@H](O)[C@@H]1O` [Example 2 (VII"), (1S-endo)-N-Bicyclo[2.2.1]hept-2-yl adenosine], on A1 adenosine receptor, the IC50 was 2.63 nM. The ED (40 mm drop in blood pressure) in assay [1] came to 0.7 mg/kg.
The matching figures for `OC[C@H]1O[C@@H](n2cnc3c(NC4CC5CCC4C5)ncnc32)[C@H](O)[C@@H]1O` (mixture of isomers) [Diastereomeric mixture, N^6-endo-bicyclo[2.2.1]heptyl adenosine]: 0.738 ± 0.088 nM and 0.6 mg/kg.

The values above are taken from patent publication US4837207A, “Diastereoisomers of n^6 -endo-bicyclo[2.2.1]heptyladenosine as antihypertensives with selective action” (priority 1987, dated 1989).
